Assay [1] has as its target T1, 53BP1^TT (tandem Tudor domain of 53BP1, residues 1481–1603) (Homo sapiens, UniProt Q12888).
T1 construct: The tandem Tudor domain of 53BP1 (53BP1^TT, residues 1481–1603) was purified as previously described; made in house; host or cells: E. coli (only for the SAXS sample)
Briefly: Isothermal titration calorimetry (ITC) of small molecules with 53BP1TT. Conditions: 25 °C, 50 mM Tris-HCl pH 7.5, 50 mM NaCl, one-site model; read-out: Kd (apparent, ITC). The class given is binding. The protocol:
The ITC measurements were performed at 25 °C using a MicroCal iTC200 calorimeter. 53BP1^TT and the small molecules (UNC2991, UNC3351, UNC3474) were in 50 mM Tris-HCl, pH 7.5, 50 mM NaCl. In a typical run, 53BP1^TT was in the reaction cell at a concentration of 150 to 160 μM while the small molecule, in the titration syringe at a concentration of 0.8–2 mM, was delivered as 2 μL injections every 3 min. The titrations were paired with control experiments for heat of dilution. The titration of 53BP1^TT with UNC1118 was performed using a MicroCal VP-ITC calorimeter. ITC data were fitted to a one-site model using a Levenberg-Marquardt non-linear regression algorithm programmed in the Origin 7.0 software.
Supplementary Figure 1 | Interaction of 53BP1TT with small molecules probed using isothermal titration calorimetry (ITC) and small-angle X-ray scattering (SAXS). a, ITC of the interaction of UNC2991, UNC3351 and UNC3474 with 53BP1TT. Raw titration data and integrated heat measurements are shown. Indicated apparent Kds with associated standard deviations were determined by nonlinear least-squares analysis.
1.33 and 2 mg/mL with an exposure time of 0.5 s, without and with 10-fold molar excess of UNC1118 or UNC3474. The error bars in the scattering curves were generated using PRIMUS in the data analysis software ATSAS 2.4.2 and represent mean ± standard deviation calculated from signal intensity scaling and merging for the three different 53BP1TT concentrations. The Guinier plots, dimensionless Kratky plots and pair distance distribution functions derived from the SAXS data are shown. Also shown are the crystal structures of 53BP1TT and 53BP1TT-UNC3474 overlaid to the corresponding SAXS-based ab initio molecular envelopes generated using GASBOR 2.3i. c, Interaction of UNC1118 with 53BP1TT characterized using ITC (left) and NMR spectroscopy (right).
For the ITC, raw titration data and integrated heat measurements are shown. The indicated Kd with associated standard deviation was determined by nonlinear least-squares analysis.
(1 picture or pasted object on this page, not shown here)

Assay [2] deals with T2, 53BP1^TT-PN (E1549P/D1550N) (Homo sapiens, UniProt Q12888, D1550N/E1549P).
T2 construct: The tandem Tudor domain of 53BP1 (53BP1^TT, residues 1481–1603) was purified as previously described; made in house
Briefly: 1H-15N HSQC NMR titration of 15N-labeled 53BP1TT-PN. The class given is binding. Conditions: up to fourfold molar excess. The protocol: All NMR data were collected at 25 °C on a 700 MHz Bruker Avance III spectrometer equipped with a cryoprobe. Data were processed and analyzed with NMRPipe[54] and NMRViewJ[55],[56].
To probe chemical shift perturbations, ^1H-^15N HSQC spectra were acquired on the following samples: 0.2 mM ^15N-labeled 53BP1^TT WT and 53BP1^TT-PN in 25 mM sodium phosphate, pH 7.0, 1.5 mM NaN3, 0.3 mM DSS, 90% H2O/10% D2O, free and incrementally titrated with various non-labeled inhibitors (UNC1078, UNC1118, UNC2170, UNC2991, UNC3474), as well as with H4KC20me2 and p53K382me2 peptides. Chemical shift perturbations (Δδ) were calculated using the Eq. (1):1 Δδ=(ΔN/5)^2+ΔH^2 where ΔN and ΔH are the corresponding differences in ^15N and ^1H chemical shifts between the bound and free forms of 53BP1.

Assay [3] deals with WT 53BP1^FFR IRIF in U2OS cells. Briefly: 53BP1FFR ionizing radiation-induced foci (IRIF) formation, immunofluorescence, WT. The class given is cell-based, Homo Sapiens. Conditions: 1 Gy X-ray, different concentrations of UNC3474. From the text: (§1) The foci-forming region (FFR; residues 1220–1711) of wild-type 53BP1 and mutants E1549P/D1550N (53BP1^FFR-PN) and E1549C/E1567C (53BP1^FFR-CC) were inserted into the retroviral vector POZ. The primers used to introduce the E1549P/D1550N mutations are: […] (forward) and […] (reverse). The primers used to introduce the E1549C/E1567C mutations are: […] (forward) and […] (reverse). The 53BP1^FFR constructs were stably expressed at a moderate level in U2OS cells. To probe the effect of UNC3474 on 53BP1^FFR IRIF formation, U2OS cells were grown on glass coverslips, pre-incubated for 1 h with various concentrations of UNC3474 and exposed to 1 Gy of X-ray radiation. After 1 h, the cells were fixed in 4% formaldehyde in PBS for 15 min at room temperature and blocked and permeabilized for 1 h in PBS containing 0.3% Triton X-100, 1% BSA, 10% fetal bovine serum. […]
(§2) Cell samples were subjected to z-stack scanning with a total depth of 5 μm to comprehensively capture all 53BP1^FFR and γH2A.X IRIF within the cell nuclei, which were fluorescently labeled with DAPI. […] To assess the quantification of 53BP1^FFR and γH2A.X foci per nuclei, a customized CellProfiler (version 3.0)[68] pipeline was employed. […]

Assay [4] concerns 53BP1^FFR-PN IRIF in U2OS cells. In words: 53BP1FFR ionizing radiation-induced foci (IRIF) formation, immunofluorescence, PN mutant. Format: cell-based, Homo Sapiens. Conditions: 1 Gy X-ray, different concentrations of UNC3474.
Text: as §1, §2

Assay [5] concerns 53BP1^FFR-CC IRIF in U2OS cells. Briefly: 53BP1FFR ionizing radiation-induced foci (IRIF) formation, immunofluorescence, CC mutant. Format: cell-based, Homo Sapiens. Conditions: 1 Gy X-ray, different concentrations of UNC3474.
Text: as §1, §2

T1 sequence (Q12888 1481-1603): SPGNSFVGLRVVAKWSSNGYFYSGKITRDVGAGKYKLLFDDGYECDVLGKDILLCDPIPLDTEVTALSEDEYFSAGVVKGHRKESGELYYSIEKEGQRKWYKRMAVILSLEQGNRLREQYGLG
T2 sequence (Q12888 1481-1603 E1549P/D1550N): as the sequence (Q12888 1481-1603) above, with E69P, D70N counted along it

Take `CC(C)c1cccc(C(=O)NCCCNC(C)(C)C)c1` [UNC3474]: in assay [1], the Kd was 1000 ± 300 nM. In addition, the “interaction with 53BP1TT-PN (1H-15N HSQC titration)” value in assay [2] is “did not interact”. The “WT 53BP1FFR IRIF formation” value in assay [3] is on record as “inhibited in a dose-dependent manner”. The “53BP1FFR-PN IRIF” value in assay [4] is “no significant change”. Further, the “53BP1FFR-CC IRIF” value in assay [5] was “no significant change”.

Values taken from article PMC10541411 (Nature Communications, 2023).
